Experimental data reported in patent US5457106A, “Pyridine derivatives, their production and use” (Takeda Chemical Industries, Ltd., priority 1991, dated 1995).
Where a name gives a salt, the structure may show the parent alone. Read-outs that look alike come from different tables or passages of the source. Values belong to the compound of their own block, whether it stands above or below them.

What was measured:
[1] = test system: ELAM-1; assay: Adhesion protein expression inhibitory activity, ELAM-1; type: cell-based
Description: (§1) Adhesion Protein Expression Inhibitory Activity The various concentrations of test compounds were added to the human umbilical cord-derived vascular endothelial cells [sold by Klabo] which were seeded in the gelatin coat plate and the mixture was incubated at 37° C. for 15 minutes. Then, the human tumor necrosis factor-α[TNF-α; sold by Genzyme] was added therein to the final concentration of 1 ng/ml and incubation was carried out at 37° C. for 3 hours for expression of ELAM-1 and for 6 hours for that of ICAM-I. After the reaction, the cells were fixed using glutaraldhyde and the expression amount of ELAM-1 and ICAM-1 was measured by the cell-ELISA method. That is, the expression was determined by […] the adhesion proteins on the cells in the system using anti-ELAM-1 antibody BBA-2 and anti-ICAM-1 antibody BBA4 as the first antibody as well as horseradish peroxidase-labeled rabbit anti-mouse IgG antibody as the second antibody.

[2] = test system: ICAM-1; assay: Adhesion protein expression inhibitory activity, ICAM-1; type: cell-based; settings: human umbilical vascular endothelial cells, TNF-α, 360 min
Description: as §1

[3] = target: T1, cyclooxygenase (Rattus norvegicus, UniProt Q63921); assay: Cyclooxygenase inhibitory activity (HHT formation from arachidonic acid in rat platelet-rich plasma); type: cell-based, rat (Jcl:wistar)
T1 construct: from tissue; host or cells: platelets in platelet-rich plasma from rat abdominal aorta blood (Jcl:wistar, male)
T1 sequence (Q63921 27-602): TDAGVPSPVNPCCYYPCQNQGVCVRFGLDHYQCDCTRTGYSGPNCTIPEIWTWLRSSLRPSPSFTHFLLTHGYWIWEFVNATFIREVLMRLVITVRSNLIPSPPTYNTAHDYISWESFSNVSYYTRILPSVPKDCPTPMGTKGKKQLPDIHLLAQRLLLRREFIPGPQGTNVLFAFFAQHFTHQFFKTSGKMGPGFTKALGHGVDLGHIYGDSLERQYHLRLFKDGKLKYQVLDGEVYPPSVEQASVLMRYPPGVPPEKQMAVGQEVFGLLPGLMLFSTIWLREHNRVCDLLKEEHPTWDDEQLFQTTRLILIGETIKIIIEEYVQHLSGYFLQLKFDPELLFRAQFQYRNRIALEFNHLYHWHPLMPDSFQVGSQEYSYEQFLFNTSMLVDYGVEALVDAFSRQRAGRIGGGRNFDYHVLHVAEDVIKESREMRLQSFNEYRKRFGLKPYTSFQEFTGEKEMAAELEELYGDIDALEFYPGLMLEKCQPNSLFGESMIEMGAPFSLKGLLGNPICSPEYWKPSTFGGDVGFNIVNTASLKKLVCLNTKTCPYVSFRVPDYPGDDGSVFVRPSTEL

[4] = test system: ART (antigen-responding T-cell); assay: In vitro ART (antigen-responding T-cell) proliferation test; type: cell-based, Lewis rat; settings: Rattus norvegicus, T-cell, read-out: % Inhibition of ART growth
[5] = test system: Mouse phenylquinone writhing; assay: Mouse phenylquinone writhing inhibitory activity; type: in vivo, mouse (Slc: ICR); settings: Mus musculus, po, 20 min, 50 mg/kg, orally; read-out: Inhibitory percentage (phenylquinone writhing)
Summary of the method: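 Male ICR mice (4 weeks, 17–24 g) dosed orally with compound suspended in 5% gum arabic. After 30 min, 0.02% phenylquinone (0.1 ml/10 g) given i.p.; writhing and stretching responses counted over 20 min.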

[6] = test system: Rat reversed passive Arthus reaction (skin); assay: Rat reversed passive Arthus reaction (skin) inhibitory activity; type: in vivo, rat (Jcl: SD); settings: po, orally, read-out: Inhibitory percentage (reversed passive Arthus reaction)
Description: Rat Reversed Passive Arthus Reaction (skin) Inhibitory Activity This reaction was-induced by using domestic rabbit anti-egg albumin (EA) antiserum according to the method of Chang and Otterness [Chang, Y. -H. and Otterness, I. G.: Eur. J. Pharmacol. 69, 155 (1981)]. Using six Jcl: SD male rats (7 weeks old, weight about 250 g) per one group, the hair was removed from the back under ether anesthesia, 1 ml of 0.5% EA physiological saline was injected […] into the tail vein, and further each 0.1 ml of diluted antiserum (6 mg protein antibody/ml) was injected in the back on both dexter and sinister sides. […] Acceleration of permeability through the vessel by the reaction was measured by injecting 1 ml of 1% Evans blue physiological saline intravenously at three hours after the induction of the reaction. Then, after 30 minutes, the rat was sacrificed by exsanguination. The skin was peeled off and the area of pigment spot (length×breadth, mm^2) was measured.

[7] = test system: brewer's yeast induced pyrexia; assay: Antipyretic activity (brewer's yeast induced pyrexia); type: in vivo, rat (DS line); settings: 50 mg/kg, orally; for Antipyretic activity, .increment. °C.: at peak time
Description: Antipyretic Activity Six male DS line rats, 7 weeks old, weighing 200 to 240 g (Nihon Clea) per one group were used. According to the method of Winder et al. (J. Pharmac. Exp. Ther. 138: 405 (1963)), a suspension of 15% brewer's yeast (Sigma) in physiological saline (1 ml/100 g, b.w.) was injected subcutaneously at 16 hours before measurement of the body temperature to induce pyrexia. After injection of yeast, only water was provided, and each rat was bred separately in a five duplicate cage. At 16, 17 and 18 hours after yeast injection, the rectal temperature was measured by a thermistor thermometer (Takara Kogyo K.K.), and this was taken as the basal body temperature. […] Animals having the body temperature of not lower than 38.5° C. at 18 hours after yeast injection were selected, and a test compound was administered orally (1 ml/100 g, b.w.). As a control, only the solvent was provided. Upon administration, the body temperature of the control group and that of the test compound-administered group were adjusted to the same temperature. The rectal temperature was measured every hour till five hours after administration.

[8] = test system: Rat carrageenin pedal edema; assay: Rat carrageenin pedal edema inhibitory activity; type: in vivo, rat (Jcl: SD); settings: Rattus norvegicus, po, 3 h, 50 mg/kg, orally, 3 hours after carrageenin; read-out: Inhibitory percentage (carrageenin pedal edema)
Summary of the method: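 Male Jcl:SD rats (6 weeks, 160-220 g) received test compound orally as a 5% gum arabic suspension, topped up with water to 5 ml/rat. One hour later 0.05 ml of 1% carrageenin was injected subcutaneously into the right hind foot pad. Edema volume was the foot volume increase 3 hours post-injection.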

[9] = test system: Mouse acetic acid writhing; assay: Mouse acetic acid writhing inhibitory activity; type: in vivo, mouse (Slc: ICR); settings: Mus musculus, po, 20 min, orally, read-out: Inhibitory percentage (acetic acid writhing)
Description: Mouse Acetic Acid Writhing Inhibitory Activity
Ten male Slc: ICR mice, 4 weeks old, per 1 group were used. A test compound was administered orally, and after 30 minutes, 0.1 ml/10 g body weight of physiological saline containing 0.6% acetic acid was injected intraperitoneally. For 20 minutes, writhing (in agony condition) response by administration of acetic acid was counted regarding individual animals. The inhibitory percentage relative to the mean response counts of a control group was calculated regarding respective animals in a test compound administration group. The test compound was suspended in 5% gum arabic solution, and the administration volume was 0.2 ml/10 g.

[10] = target: T2, 5-Lipoxygenase (Rattus norvegicus, UniProt P12527); assay: 5-Lipoxygenase inhibitory activity in rat basophilic leukemia cells; type: cell-based
T2 construct: rat basophilic leukemia cell suspension; endogenous in cells
T2 sequence (P12527 1-673): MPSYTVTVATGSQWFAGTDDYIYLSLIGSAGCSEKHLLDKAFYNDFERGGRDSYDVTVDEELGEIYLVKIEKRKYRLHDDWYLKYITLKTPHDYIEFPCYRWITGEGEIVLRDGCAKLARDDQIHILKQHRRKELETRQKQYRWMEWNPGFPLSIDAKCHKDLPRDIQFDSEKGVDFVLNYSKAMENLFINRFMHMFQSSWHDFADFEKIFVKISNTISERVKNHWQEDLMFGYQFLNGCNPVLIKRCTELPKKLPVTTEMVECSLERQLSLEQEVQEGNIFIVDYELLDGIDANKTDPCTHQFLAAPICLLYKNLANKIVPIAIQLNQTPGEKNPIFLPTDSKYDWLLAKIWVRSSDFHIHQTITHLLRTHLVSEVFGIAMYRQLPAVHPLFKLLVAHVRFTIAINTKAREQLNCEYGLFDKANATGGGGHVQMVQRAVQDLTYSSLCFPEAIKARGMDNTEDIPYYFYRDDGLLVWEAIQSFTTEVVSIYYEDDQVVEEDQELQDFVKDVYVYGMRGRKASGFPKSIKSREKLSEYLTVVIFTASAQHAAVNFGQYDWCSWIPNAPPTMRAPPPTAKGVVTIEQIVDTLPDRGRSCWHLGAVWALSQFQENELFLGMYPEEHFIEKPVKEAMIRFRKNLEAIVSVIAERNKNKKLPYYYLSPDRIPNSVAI
Description: 5-Lipoxygenase Inhibitory Activity […] Then, 0.1 ml of mast cell medium containing 50 μg of arachidonic acid and 1 μg of calcium ionophore (A-23187) were added and the mixture was allowed to stand at 37° C. for 15 minutes. Ethanol (1 ml) was added thereto and the mixture was shaken well, and filtered (Membrane filter, 0.45 μm). […] As a control, the measurement was carried out according to the same manner except that 0.01 ml of the solvent used for dissolving the test compound was used in place of the test compound. The inhibitory percentage (%) was calculated from the following equation to obtain IC50.

[11] = 10 μM, human umbilical vascular endothelial cells, TNF-α; 180 min

Structure (SMILES): O=C1c2ccccc2S(=O)(=O)N1CSc1ccncc1 [Example 180, 4-(saccharinmethylthio)pyridine hydrochloride]
- Expression Inhibitory Potency, ELAM-1 ([1]; 13 μM, human umbilical vascular endothelial cells, TNF-α, 180 min, hydrochloride): 29%
- Expression Inhibitory Potency, ICAM-1 ([2]; 13 μM, hydrochloride): 35%

- IC50 [3]: 5.1 µM
Structure (SMILES): O=c1[nH]c2ccccc2c(=O)n1CCCCSc1ccncc1 [Example 146, 3-[4-(4-pyridylthio)butyl]quinazolin-2,4(1H,3H)-dione]
- inhibition at 1 µM [4]: 22%
- inhibition at 10 µM [4]: 20%
- Expression Inhibitory Potency, ELAM-1 ([1]; 13 μM, human umbilical vascular endothelial cells, TNF-α; 180 min): 33%

- IC50 [3]: 11.3 µM
Structure (SMILES): O=C(NCCCSc1ccncc1)c1cccnc1 [Example 41, 4-[3-(nicotinoylamino)propylthio]pyridine]
- inhibition in vivo at 50 mg/kg [5]: 73%
- inhibition in vivo at 50 mg/kg [6]: 35%

Structure (SMILES): O=C1SC(=Cc2ccncc2)C(=O)N1CCCCSc1ccncc1 [Example 184, 4-[4-[5-(4-pyridyl)methylene-2,4-thiazolidinedione]butylthio]pyridine]
- Expression Inhibitory Potency, ELAM-1 [1, 11]: 47%

Structure (SMILES): CCCCCCCCCC=C1SC(=O)N(CCCCSc2ccncc2)C1=O [Example 187, 4-[4-(5-nonylmethylene-2,4-thiazolidinedione)butylthio]pyridine hydrochloride]
- Expression Inhibitory Potency, ELAM-1 [1, 11]: 53%
- Expression Inhibitory Potency, ICAM-1 ([2]; 10 μM): 79%

Structure (SMILES): O=C1SC(=Cc2cccnc2)C(=O)N1CCCCSc1ccncc1 [Example 185, 4-[4-[5-(3-pyridyl)methylene-2,4-thiazolidinedione]butylthio]pyridine]
- Expression Inhibitory Potency, ELAM-1 [1, 11]: 33%

- IC50 [3]: 8.6 µM
Structure (SMILES): O=C(NCCCSc1ccncc1)c1ccco1 [Example 53, 4-[3-(2-furoylamino)propylthio]pyridine]
- inhibition in vivo at 50 mg/kg [6]: 21%

Structure (SMILES): CC(C)(C)C(=O)NCCCSc1ccncc1.Cl [Example 24, 4-[3-(pivaloylamino)propylthio]pyridine hydrochloride]
- inhibition at 1 µM [4]: 29%
- inhibition at 10 µM [4]: 35%
- inhibition in vivo at 50 mg/kg [5]: 56%
- Antipyretic activity, peak time [7]: 2 h
- Antipyretic activity, .increment. °C. [7]: -1.33 °C
- inhibition in vivo at 50 mg/kg [6]: 46%

- IC50 [3]: 5.5 µM
Structure (SMILES): O=C(NCCCSc1ccncc1)c1cnccn1 [Example 124, 4-[3-(2-pyrazinecarbonylamino)propylthio]pyridine]
- inhibition in vivo at 50 mg/kg [8]: 51%
- inhibition in vivo at 50 mg/kg [9]: 69%
- Antipyretic activity, peak time [7]: 2 h
- Antipyretic activity, .increment. °C. [7]: -1.52 °C

- IC50 [3]: 3.4 µM
Structure (SMILES): O=C(NCCCSc1ccncc1)C(F)(F)F [Example 25, 4-[3-(trifluoroacetylamino)propylthio]pyridine hydrochloride]
- inhibition at 1 µM [4]: 44%
- inhibition at 10 µM [4]: -7%
- inhibition in vivo at 50 mg/kg [5]: 60%
- inhibition in vivo at 50 mg/kg [6]: 24%

Structure (SMILES): CCCCOc1ccc(C(=O)NCCCSc2ccncc2)cc1 [Example 35, 4-[3-(4-n-butoxybenzoylamino)propylthio]pyridine hydrochloride]
- IC50 [3]: 2.3 µM
- inhibition at 1 µM [4]: 18%
- inhibition at 10 µM [4]: 33%
- inhibition in vivo at 50 mg/kg [5]: 60%
- inhibition in vivo at 50 mg/kg [6]: 30%

- IC50 ([10]; 5-HETE, read-out: 5-Lipoxygenase inhibitory activity, 5-HETE IC50): 1.3 µM
- IC50 ([10]; LTB4, read-out: 5-Lipoxygenase inhibitory activity, LTB4 IC50): 0.79 µM
Structure (SMILES): O=C1C(=Cc2ccccc2)SC(=S)N1CCCCSc1ccncc1 [Example 153, 4-[4-(5-benzylidenerhodanine)butylthio]pyridine]
- inhibition at 1 µM [4]: -20%
- inhibition at 10 µM [4]: 75%
- inhibition in vivo at 50 mg/kg [9]: 49%

Structure (SMILES): O=C(C=Cc1cccs1)NCCCSc1ccncc1 [Example 56, 4-[3-(2-thiopheneacrylamino)propylthio]pyridine]
- inhibition in vivo at 50 mg/kg [6]: 32%

Structure (SMILES): O=C1c2ccccc2S(=O)(=O)N1CSc1ccncc1 [Example 172, 4-saccharinmethylthiopyridine]
- inhibition in vivo at 50 mg/kg [8]: 19%
- Expression Inhibitory Potency, ELAM-1 ([1]; 13 μM, human umbilical vascular endothelial cells, TNF-α, 180 min): 31%
- Expression Inhibitory Potency, ICAM-1 ([2]; 13 μM): 34%
